Data reported in publication PMC8686256, “DZNep promotes mouse bone defect healing via enhancing both osteogenesis and osteoclastogenesis” (Stem Cell Research & Therapy, 2021).

Assays:
Format in all cases: cell-based, mouse
[1] = system: osteoclast-related genes in BMMs; experiment: qPCR of osteoclast-related genes in BMMs
Method: BMMs were cultured in 6-well plates at the density of 2 × 10^5 cells/well in α-MEM supplemented with M-CSF (30 ng/ml), RANKL (50 ng/ml). The cells were then treated with or without 25 nM DZNep for 0, 1, 3, 5 days, or with various concentrations of DZNEP (0, 6.25, 25 nM) for 5 days, or with negative control siRNA, negative control siRNA with DZNep, and Foxc1 small interfering RNA (siRNA) with DZNep for 5 days. Once the culture completed, the Axygen RNA Miniprep Kit (Axygen, Union City, CA, USA) was used to extract the total RNA. BMSC were seeded in a 6-well plate at a number of 4 × 10^5 cells/well and treated with 0, 25, 50, 100 nM of DZNep combined with osteoblast-cultured medium for 24 h, or with or without 100 nM DZNep combined with osteoblast-cultured medium for 0 and 7 days, or with negative control siRNA, negative control siRNA with DZNep, and Wnt4 small interfering RNA (siRNA) with DZNep combined with osteoblast-cultured medium for 7 days. Once the culture completed, the Axygen RNA Miniprep Kit (Axygen, Union City, CA, USA) was used to extract the total RNA. After reverse transcription to obtain cDNA from the RNA template by using the Prime Script RT reagent Kit was finished. The real-time PCR assay was subsequently performed by using the SYBR® Premix Ex Taq™ II on an ABI 7500 Sequencing Detection System (Applied Biosystems, Foster City, CA). Specifically, total volume of 10 μl liquid consisted by 5 μl of SYBR® Premix Ex Taq™ II, 1 μl of diluted cDNA, 0.4 μl of mixed forward and reverse primer, and 3.6 μl of ddH2O was added into each hole of 384 PCR plate. Conditions of the 40 cycles were: 95 °C for 5 s and 60 °C for 30 s. The melting curves and reverse transcription PCR (RT-PCR) were the methods to detect the specificity of amplification product. Each target’s quantity, run in triplicate, was normalized to Actin Beta (Actb). […]

[2] = system: c-FOS and NFATc1; experiment: Western blotting of c-FOS and NFATc1 in BMMs
Method: (§1) To explore the variation of the proteins on long-term activated signaling, BMMs were cultured in α-MEM containing M-CSF (30 ng/ml) and RANKL (50 ng/ml) at a density of 2 × 10^5 cells/well on 6-well plates. After 24 h, the BMMs were treated with or without 25 nM DZNep for 0, 1, 3, and 5 days, and total protein was obtained, respectively, on these specific time points. To determine the effect of DZNep on the protein of short-time activated phosphorylated, RAW264.7 cells were cultured in α-MEM at a density of 5 × 10^5 cells/well on 6-well plates. One day later, the cells were treated with the serum-free α-MEM in the presence or absence of DZNEP for 3 hand then stimulated with 50 ng/mL RANKL for 0, 10, 20, 30, and 60 min. To determine the efficiency of EZH2 shRna, BMMs were cultured in α-MEM at a density of 5 × 10^5 cells/well on 6-well plates. One day later, the cells were treated with negative control shRNA or different EZH2 shRNA for 2 days. To determine the efficiency of Foxc1 siRna, BMMs were cultured in α-MEM at a density of 5 × 10^5 cells/well on 6-well plates. […] After TBST wash for 3 times, the secondary fluorescence antibodies were incubated without light for 1 h at room temperature and the reactivity was visualized by using Odyssey V3.0 image scanning (Li-COR. Inc., Lincoln, NE, USA). […]

[3] = system: EZH2 and H3K27me3; experiment: Western blotting of EZH2 and H3K27me3 in BMMs; conditions: 25 nM; 0, 1, 3, 5 days with RANKL, vs control
Method: as §1

[4] = system: NF-κB signaling pathway; experiment: Western blotting and immunofluorescence of NF-κB signaling pathway
Method: as §1

## Nc1nccc2c1ncn2C1C=C(CO)C(O)C1O (centres unmarked) [DZNep, 3-Deazaneplanocin]
[1]; 25 nM, 0, 1, 3, 5 days
  expression of Trap, Ctsk, Atp6v0d2 (qPCR): significantly enhanced in a time-dependent manner
[1]; RANKL and DZNep treatment for 5 days
  mRNA expression of Foxc1 in BMMs: upregulated
[1]; indicated DZNep concentrations, 5 days
  expression of Calcr, c-FOS, Nfatc1, Trap, Ctsk, Atp6v0d2 (qPCR): upregulated in a dose-dependent manner
[2]; 25 nM, 0, 1, 3, 5 days, vs control
  expression of c-FOS and NFATc1 (western blot): further enhanced
[2]; RANKL, 5 days
  c-FOS and NFATc1 expression (western blot), various concentrations: upregulated
[3]
  EZH2 and H3K27me3 expression in BMMs: decreased at a time manner
[4]; 25 nM pretreatment, then RANKL
  NF-κB nuclear translocation: enhancement of NF-κB nuclear translocation
[4]; RAW264.7, 25 nM pretreatment, RANKL for specific times
  phosphorylation of IKK, IκB, and p65: further promoted over time
